From ChEMBL document CHEMBL3244275, “Synthesis and antitumor activity of 1,2-dihydro-1-(2-deosy-beta-D-erythro-pentofuranosyl)-2-oxo-5-methylpyrazine 4-oxide, a structural analogue of thymidine” (J Med Chem, 1977) come the findings set out here.

One series relates to Mus musculus. The series is described as follows: Toxicity in mouse L1210 cells allografted DBA/2 Ha mouse assessed as overt signs of toxicity at 100 to 400 mg/kg, ip qd for 6 days. On the set-up: dose 100-400 mg/kg, route intraperitoneal. Particulars: in vivo, 144 h. It counts as organism-based.
For series [1], the system named is L1210. In words: Antitumor activity against mouse L1210 cells allografted in DBA/2 Ha mouse assessed as increase in life span of host at 400 mg/kg, ip qd for 6 days relative to control. The series is classed as functional. To be noted: route intraperitoneal.
The subject of series [2] is L1210. In words: Growth inhibition of mouse L1210 cells at 9 x 10^-7 M after 40 hrs by trypan blue exclusion assay. The series is classed as functional. To be noted: L1210, 40 h, read-out: GI.
Series [3] deals with Escherichia coli. The series is described as follows: Antibacterial activity against Escherichia coli K-12 at 1 x 10^-3 M. The series is classed as functional. To be noted: read-out: GI.
In series [4] the test system is L1210. The series is described as follows: Growth inhibition of mouse L1210 cells at inhibitor/deoxyuridine ratio 2 after 40 hrs by trypan blue exclusion assay. It counts as functional.
Series [5] has as its system L1210. In words: Growth inhibition of mouse L1210 cells at inhibitor/deoxycytidine ratio 0.2 after 40 hrs by trypan blue exclusion assay. The series is classed as functional.
Series [6] relates to L1210. In words: Growth inhibition of mouse L1210 cells at inhibitor/uridine ratio 0.04 after 40 hrs by trypan blue exclusion assay. It counts as functional.
The subject of series [7] is L1210. In words: Growth inhibition of mouse L1210 cells at inhibitor/cytidine ratio 0.02 after 40 hrs by trypan blue exclusion assay. It counts as functional.
Series [8] deals with L1210. In words: Antitumor activity against mouse L1210 cells allografted in DBA/2 Ha mouse assessed as increase in life span of host at 100 mg/kg, ip qd for 6 days relative to control. The series is classed as functional. To be noted: route intraperitoneal.
Series [9] deals with L1210. In words: Antitumor activity against mouse L1210 cells allografted in DBA/2 Ha mouse assessed as increase in life span of host at 200 mg/kg, ip qd for 6 days relative to control. The series is classed as functional. To be noted: route intraperitoneal.
The subject of series [10] is L1210. In words: Growth inhibition of mouse L1210 cells at inhibitor/thymidine ratio 50 after 40 hrs by trypan blue exclusion assay. The series is classed as functional.
Series [11] concerns Escherichia coli. The series is described as follows: Antibacterial activity against Escherichia coli at 1 x 10^-3 M. It counts as functional. Particulars: read-out: GI.
A further series deals with Enterococcus faecium. The series is described as follows: Antibacterial activity against Streptococcus faecium at 8 x 10^-5 M. The series is classed as functional. Particulars: read-out: GI.

As to `Cc1cn([C@H]2C[C@H](O)[C@@H](CO)O2)c(=O)c[n+]1[O-]`, the Activity result is “Non-toxic” in the series on Mus musculus, 55% in the series with L1210 [1], 18% with L1210 [8] and 30% in the series with L1210 [9]. Besides, the inhibition of growth at 0.9 µM in the series with L1210 [2] was 50%. Moreover, the inhibition of growth at 1000 µM in the series with Escherichia coli [3] amounted to 30%; in the series with Escherichia coli [11] it was 20%. Besides, the “growth inhibition (GI)” value in the series on L1210 [4], in the series with L1210 [5], in the series on L1210 [6], with L1210 [7] and in the series with L1210 [10] was 50% in each case. In the series on Enterococcus faecium, the inhibition of growth at 80 µM came to 50%.
